# From patent US20210008028A1, “COMPOSITIONS AND METHODS FOR TREATING DIARRHEAL DISEASES” (VANESSA RESEARCH, INC., priority 2018, published 2021)
# Test system: CTx-induced fluid secretion in the mouse intestine
# Experiment: Cholera-toxin induced closed-loop mouse diarrheal model, individual polyphenols and their combination
# Format: in vivo
# Details: for Concentration that did not have any effect on the CTx-induced fluid secretion: individual compound, CTx 1 μg per loop; for Effect on fluid accumulation elicited by CTx: individual polyphenols, dose-dependent
# Description: Following identification, individual reagents of cyanidin, delphinidin, epicatechin gallate and epigallocatechin gallate were acquired from ChromaDex (Chromadex, Irvine, Calif., USA) and tested in the same cholera-toxin induced closed-loop mouse diarrheal model described above. We sought and resolved the IC^50 concentration of each individual component as relevant for the treatment of cholera-toxin induced intestinal secretion.
# Mice (19-35 g) were fasted for 24-48 h, weighed and anesthetized with Avertin Sigma-Aldrich, St. Louise, Mo., USA) (250 mg/kg IP induction dose f.b. 2.6 mg IP every 30-45 minutes as needed for maintenance of anesthesia). Body temperature was maintained at 37-38° C. using a heating pad.
# Abdomen was opened. Small, and part of the large intestine were identified. 2-4 cm loops were ligated in the proximal jejunum beginning immediately downstream of Treitz ligament. Loops were separated by 1-2 cm of intervening small intestine. After ligation, one loop was injected with 100 μl of PBS, second loop was injected with CTx solution (Cayman chemicals, 1 μg in 100 μl PBS and third loop was injected with CTx and polyphenol solution (Chromadex, Irvine, Calif., USA) in 100 μl of PBS. Injected loops were photographed and carefully placed back into the abdominal cavity and then abdomen was closed with two sutures. After 4 to 6-hour incubation, animal was euthanized and entire length of small intestine, cecum and ascending transverse colon were removed as a single prep. Loops were excised, trimmed of fat, measured and weighted. Mice were euthanized by cervical dislocation or an overdose injection of Avertin. All animal protocols were approved by the Laboratory Animal Ethical Committee of Vanessa Research Inc. The loop weight/length ratio was calculated.
# Flavan-3-ols and gallotannins stock solutions (stock dilutions (stored at −20 C)) and working dilutions (PBS) were designated and prepared as follows:
# F1A—Cyanidin chloride (Chromadex, ASB-00003955-005 Lot #00003955-041) 5 mg dissolved in 1 ml methanol (Sigma-Aldrich, Saint Louise, Mo., USA) to 5 mg/ml stock. Original concentration used in experiments 0.05 mg/ml. Serial dilutions from 1:10 to 1:100,000 with increments of 1:10 were prepared for experiments.
# F1B—Delphinidin chloride (Chromadex, ASB-00004125-001 Lot #00004125-504) 1 mg dissolved in 143 ul methanol to 7 mg/ml stock. Original concentration used in experiments 0.07 mg/ml. Serial dilutions from 1:10 to 1:100,000 with increments of 1:10 were prepared for experiments.
# F1C—Epicatechin gallate (Chromadex, ASB-00005135-005 Lot #00005135-523) 5 mg dissolved in 1 ml methanol to 5 mg/ml stock. Original concentration used in experiments […] (1:50 dilution of 5 mg/ml stock). Serial dilutions from 1:10 to 1:100,000 with increments of 1:10 were prepared for experiments.
# F1D—Epigallocatechin gallate (Chromadex, ASB-00005150-005 Lot #00005150-008) 5 mg dissolved in 1 ml methanol to 5 mg/ml stock. Original concentration used in experiments […] (1:33.4 of 5 mg/ml stock). Serial dilutions from 1:10 to 1:100,000 with increments of 1:10 were prepared for experiments.
# However, in order to confirm or exclude the idea of synergism between multiple polyphenols in exertion of the anti-secretory effect following induction of fluid secretion with CTx, we attempted a treatment with a combination of all 4 polyphenols in the concentrations as indicated in Table 1. The ratio of concentrations (mg/ml) of individual members (cyaniding:delphinidin:epicatechin gallate:epigallocatechin gallate) in the combination was derived from Table 1 as 500:70:1:150 (weight ratio) accordingly.
# Data analysis was done as follows: The formula was used as adapted from Yamamoto K., 1979:
# Mass accumulation=Tm−(Cm/CL)×TL
# After determining fluid accumulation in treated and untreated samples, a percent reduction in mass was performed using the mass obtained from the previous formula
# 5. The certain variables were removed based on the Exclusion Criteria for Data: […]
SMILES,Concentration that did not have any effect on the CTx-induced fluid secretion,Effect on fluid accumulation elicited by CTx
"Oc1cc(O)c2cc(O)c(-c3ccc(O)c(O)c3)[o+]c2c1.[Cl-] [F1A, Cyanidin chloride]",5e-06 mg/mL,significantly reduced fluid accumulation
"Oc1cc(O)c2cc(O)c(-c3cc(O)c(O)c(O)c3)[o+]c2c1 [F1B, Delphinidin chloride]",7e-08 mg/mL,significantly reduced fluid accumulation
"O=C(O[C@@H]1Cc2c(O)cc(O)cc2O[C@@H]1c1ccc(O)c(O)c1)c1cc(O)c(O)c(O)c1 [F1C, Epicatechin gallate]",1e-08 mg/mL,significantly reduced fluid accumulation
"O=C(O[C@@H]1Cc2c(O)cc(O)cc2O[C@@H]1c1cc(O)c(O)c(O)c1)c1cc(O)c(O)c(O)c1 [F1D, Epigallocatechin gallate]",1e-06 mg/mL,significantly reduced fluid accumulation
